In US11712434B2, “Compound having anti-cancer effect, and preparation method therefor and use thereof” (3D MEDICINES (BEIJING) CO., LTD., priority 2016, dated 2023):
pIC50: −log10 of the molar value. Blank lines part the entries; values can stand above or below the compound they belong to.

Key:
Type in all cases: cell-based
[1] = test system: AN3CA; test: Cell proliferation assay (Alamar Blue); conditions: AN3CA tumor cell line, 6 days culture
Method in brief: (§1)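 Resazurin-based viability: cells grown 6 d with compound at 37 °C, 5% CO2, then AlamarBlue 1-4 h, Ex 560/Em 590 nm. Dose range 9 points, 3.16-fold, top 100 or 30 μM. IC50 by nonlinear regression.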

[2] = test system: CCRF-CEM; test: Cell proliferation assay (Alamar Blue); conditions: CCRF-CEM tumor cell line, 6 days culture
Method in brief: as §1

[3] = test system: DU145; test: Cell proliferation assay (Alamar Blue); conditions: DU145 tumor cell line, 6 days culture
Method in brief: as §1

[4] = test system: HCCLM3; test: Cell proliferation assay (Alamar Blue); conditions: HCCLM3 tumor cell line, 6 days culture
Method in brief: as §1

[5] = test system: HEPG2; test: Cell proliferation assay (Alamar Blue); conditions: HEPG2 liver cancer cell line, 6 days culture
Method in brief: as §1

[6] = test system: HLE; test: Cell proliferation assay (Alamar Blue); conditions: HLE liver cancer cell line, 6 days culture
Method in brief: as §1

[7] = test system: HLF; test: Cell proliferation assay (Alamar Blue); conditions: HLF liver cancer cell line, 6 days culture
Method in brief: as §1

[8] = test system: HT55; test: Cell proliferation assay (Alamar Blue); conditions: HT55 tumor cell line, 6 days culture
Method in brief: as §1

[9] = test system: HUH1; test: Cell proliferation assay (Alamar Blue); conditions: HUH1 liver cancer cell line, 6 days culture
Method in brief: as §1

[10] = test system: Hep3B2.1-7; test: Cell proliferation assay (Alamar Blue); conditions: Hep3B2.1-7 liver cancer cell line, 6 days culture
Method in brief: as §1

[11] = test system: JHH2; test: Cell proliferation assay (Alamar Blue); conditions: JHH2 liver cancer cell line, 6 days culture
Method in brief: as §1

[12] = test system: JHH6; test: Cell proliferation assay (Alamar Blue); conditions: JHH6 liver cancer cell line, 6 days culture
Method in brief: as §1

[13] = test system: K562; test: Cell proliferation assay (Alamar Blue); conditions: K562 tumor cell line, 6 days culture
Method in brief: as §1

[14] = test system: KASUMI-1; test: Cell proliferation assay (Alamar Blue); conditions: KASUMI-1 (leukemia cells), 6 days culture
Method in brief: as §1

[15] = test system: KM12; test: Cell proliferation assay (Alamar Blue); conditions: KM12 tumor cell line, 6 days culture
Method in brief: as §1

[16] = test system: Li-7; test: Cell proliferation assay (Alamar Blue); conditions: Li-7 liver cancer cell line, 6 days culture
Method in brief: as §1

[17] = test system: MFM-223; test: Cell proliferation assay (Alamar Blue); conditions: MFM-223 tumor cell line, 6 days culture
Method in brief: as §1

[18] = test system: MG63; test: Cell proliferation assay (Alamar Blue); conditions: MG63 tumor cell line, 6 days culture
Method in brief: as §1

[19] = test system: NCI-H1648; test: Cell proliferation assay (Alamar Blue); conditions: NCI-H1648 tumor cell line, 6 days culture
Method in brief: as §1

[20] = test system: NCI-H1703; test: Cell proliferation assay (Alamar Blue); conditions: NCI-H1703 (lung cancer cells), 6 days culture
Method in brief: as §1

[21] = test system: NCI-H2170; test: Cell proliferation assay (Alamar Blue); conditions: NCI-H2170 tumor cell line, 6 days culture
Method in brief: as §1

[22] = test system: NCI-H526; test: Cell proliferation assay (Alamar Blue); conditions: NCI-H526 tumor cell line, 6 days culture
Method in brief: as §1

[23] = test system: SK-HEP-1; test: Cell proliferation assay (Alamar Blue); conditions: SK-HEP-1 liver cancer cell line, 6 days culture
Method in brief: as §1

[24] = test system: SNU354; test: Cell proliferation assay (Alamar Blue); conditions: SNU354 liver cancer cell line, 6 days culture
Method in brief: as §1

[25] = test system: SNU387; test: Cell proliferation assay (Alamar Blue); conditions: SNU387 liver cancer cell line, 6 days culture
Method in brief: as §1

[26] = test system: SNU475; test: Cell proliferation assay (Alamar Blue); conditions: SNU475 liver cancer cell line, 6 days culture
Method in brief: as §1

[27] = test system: 26 liver cancer cell lines; test: Cell proliferation assay (Alamar Blue), liver cancer panel summary; conditions: almost all liver cancer cells
Description: 1. Instruments and Materials • Thermo 311 CO2 incubator; Haier biosafety cabinet; Molecular Devices microplate reader; Xiangyi brand L530 desktop low speed centrifuge; Olympus IX51 inverted fluorescence microscope, DMEM, RPMI 1640, MEM, DMEM/F12 1:1 medium, Fetal bovine serum, 0.25% trypsin solution, phosphate buffer (Thermo Fisher Shanghai Co., Ltd.); sigma dimethyl sulfoxide (DMSO), resazurin; 54 commercial tumor cell lines (including 26 liver cancer cell lines). Experimental drugs: compounds 1-12 and active drug Linifanib; chemotherapeutic drug Doxorubicin (HY-15142; Shanghai Qianyuan Biomedical Technology Co., Ltd.).
2. […] The proportion and quantity of passage were determined by experimental needs. The ratio of subculture of this cell line was generally 1:2^˜1:3. • 2.2 Inhibition Effect on the Proliferation of Different Tumor Cell Lines • Cell test: 54 cell lines in logarithmic growth phase were inoculated in 96-well culture plates at 500^˜1×10^4/well (the optimal seeding density of each cell line was determined in pre-experiment), After incubating at 37° C. for 4 h in a 5% CO2 humidification incubator, added 10 μL of compounds 1-12 or Linifanib to each well, and tested 9 drug concentration gradients for each compound (diluted from the highest concentration of the test by 3.16 times). […]

pIC50 [2]: < 4.00
pIC50 [3]: 4.08
pIC50 [4]: < 4.00
pIC50 [5]: 5.03
pIC50 [9]: < 4.00
pIC50 [10]: 4.10
pIC50 [13]: < 4.00
pIC50 [19]: < 4.00
pIC50 [20]: 6.60
pIC50 [21]: 4.23
pIC50 [22]: < 4.00
pIC50 [23]: < 4.00
pIC50 [24]: 4.01
pIC50 [25]: < 4.00
pIC50 [26]: < 4.00
Compound: Cc1ccc(F)c(NC(=O)Nc2ccc(-c3cccc4[nH]nc(NC(=O)CCCCCCCCCCCNC(=O)C[C@H](N)C(=O)O)c34)cc2)c1 [Compound 12]
pIC50 [1]: 5.42
pIC50 [6]: < 4.00
pIC50 [7]: < 4.00
pIC50 [8]: < 4.00
pIC50 [11]: < 4.00
pIC50 [12]: 4.07
pIC50 [14]: 6.31
pIC50 [15]: 4.08
pIC50 [16]: 4.04
pIC50 [17]: 4.27
pIC50 [18]: < 4.00
response of liver cancer cells [27]: did not respond

pIC50 [2]: < 4.00
pIC50 [3]: < 4.00
pIC50 [4]: < 4.00
pIC50 [5]: 4.26
pIC50 [9]: < 4.00
pIC50 [10]: < 4.00
pIC50 [13]: < 4.00
pIC50 [19]: < 4.00
pIC50 [20]: 5.91
pIC50 [21]: < 4.00
pIC50 [22]: < 4.00
pIC50 [23]: < 4.00
pIC50 [24]: < 4.00
pIC50 [25]: < 4.00
pIC50 [26]: < 4.00
Compound: Cc1ccc(F)c(NC(=O)Nc2ccc(-c3cccc4[nH]nc(NC(=O)CCCCCNC(=O)C[C@H](N)C(=O)N[C@@H](CCC(=O)O)C(=O)O)c34)cc2)c1 [Compound 4]
pIC50 [1]: 4.60
pIC50 [6]: < 4.00
pIC50 [7]: < 4.00
pIC50 [8]: < 4.00
pIC50 [11]: < 4.00
pIC50 [12]: < 4.00
pIC50 [14]: 5.82
pIC50 [15]: < 4.00
pIC50 [16]: < 4.00
pIC50 [17]: < 4.00
pIC50 [18]: < 4.00

pIC50 ([2]; Homo sapiens, 144 h): < 4.00
pIC50 ([3]; Homo sapiens, DU-145, 144 h): < 4.00
pIC50 ([4]; Homo sapiens, 144 h): < 4.00
pIC50 ([5]; Homo sapiens, 144 h): 4.14
pIC50 ([9]; Homo sapiens, HuH-1, 144 h): < 4.00
pIC50 ([10]; 144 h): < 4.00
pIC50 ([13]; Homo sapiens, 144 h): < 4.00
pIC50 ([19]; Homo sapiens, 144 h): < 4.00
pIC50 ([20]; Homo sapiens, 144 h): 5.55
pIC50 ([21]; Homo sapiens, 144 h): < 4.00
pIC50 ([22]; Homo sapiens, 144 h): < 4.00
pIC50 ([23]; Homo sapiens, SK-HEP1, 144 h): < 4.00
pIC50 ([24]; Homo sapiens, SNU-354, 144 h): < 4.00
pIC50 ([25]; Homo sapiens, SNU-387, 144 h): < 4.00
pIC50 ([26]; Homo sapiens, SNU-475, 144 h): < 4.00
Compound: Cc1ccc(F)c(NC(=O)Nc2ccc(-c3cccc4[nH]nc(NC(=O)CCCCCNC(=O)C[C@H](N)C(=O)N[C@@H](CCC(=O)N[C@@H](CCC(=O)N[C@@H](CCC(=O)N[C@@H](CCC(=O)O)C(=O)O)C(=O)O)C(=O)O)C(=O)O)c34)cc2)c1 [Compound 5]
pIC50 ([1]; Homo sapiens, AN3-CA, 144 h): 4.38
pIC50 ([6]; Homo sapiens, 144 h): < 4.00
pIC50 ([7]; 144 h): < 4.00
pIC50 ([8]; Homo sapiens, 144 h): < 4.00
pIC50 ([11]; JHH-2, 144 h): < 4.00
pIC50 ([12]; 144 h): < 4.00
pIC50 ([14]; Homo sapiens, 144 h): 5.37
pIC50 ([15]; Homo sapiens, 144 h): < 4.00
pIC50 ([16]; 144 h): < 4.00
pIC50 ([17]; Homo sapiens, 144 h): < 4.00
pIC50 ([18]; Homo sapiens, MG-63, 144 h): < 4.00
